For this assay, the system named is HCV replication. The assay can be described thus: HCV replicon assay (luciferase) in ET (Huh-lucubineo-ET) cell line. The class given is cell-based. Conditions: Hepatitis C virus, tested at 5 μM; ET replicon cells; luciferase activity measured 48-72 hours later; relative to no compound control. The protocol: A cell line, ET (Huh-lucubineo-ET) was used for screening of compounds of the present invention for inhibiting HCV replication. The ET cell line was stably transfected with RNA transcripts harboring a I389luc-ubi-neo/NS3-3′/ET; replicon with firefly luciferase-ubiquitin-neomycin phosphotransferase fusion protein and EMCV-IRES driven NS3-5B polyprotein containing the cell culture adaptive mutations (E1202G; T12801; K1846T) (Krieger at al, 2001 and unpublished). The ET cells were grown in DMEM (Dulbeco's Modified Eagle's Medium), supplemented with 10% fetal calf serum, 2 mM Glutamine, Penicillin (100 IU/mL)/Streptomycin (100 μg/mL), 1× nonessential amino acids, and 250 μg/mL G418 (“Geneticin”). They were all available through Life Technologies (Bethesda, Md.). The cells were plated at 0.5-1.0×10^4 cells/well in the 96 well plates and incubated for 24 hrs before adding testing compounds. Then the compounds were added to the cells to achieve a final concentration of 0.1 nM to 50 μM and a final DMSO concentration of 0.5%. Luciferase activity were measured 48-72 hours later by adding a lysis buffer and the substrate (Catalog number Glo-lysis buffer E2661 and Bright-Glo luciferase system E2620 Promega, Madison, Wis.). Cells should not be too confluent during the assay. Percent inhibition of replication was plotted relative to no compound control. Under the same condition, cytotoxicity of the compounds was determined using cell proliferation reagent, WST-1 (Roche, Germany). The compounds showing antiviral activities, but no significant cytotoxicities were chosen to determine EC50 and TC50. For these determinations, a 10 point 2-fold serial dilution for each compound was used, which spans a concentration range of 1000 fold. EC50 and similarly TC50 values were calculated by fitting % inhibition at each concentration to the following equation:
% inhibition=100%/[(IC50/[I])^b+1]
where b is Hill's coefficient.
In some preferred embodiments compounds of Formula I will have a % inhibition of at least 20% when tested at 5 μM. In other embodiments the compounds of Formula I will have a % inhibition of at least 50% when tested at 5 μM.
For `N#Cc1cccc(C2SC[C@@H](C(=O)Nc3nc(-c4ccc(C(=O)NC5CC5)cc4)cs3)N2C(=O)OCc2ccccc2)c1` (mixture of isomers) [Compound 7033, (R)-2-(3-Cyano-phenyl)-4-[4-(4-cyclopropylcarbamoyl-phenyl)-thiazol-2-ylcarbamoyl]-thiazolidine-3-carboxylic acid benzyl ester], at 5 µM the inhibition was 100%.
The figure for `O=C(NC1CCCC1)c1ccc(-c2csc(NC(=O)[C@@H]3CSC(c4ccncc4)N3C(=O)OCc3ccccc3)n2)cc1` (some centres unmarked) [Compound 7012, 4-[4-(4-Cyclopentylcarbamoyl-phenyl)-thiazol-2-ylcarbamoyl]-2-pyridin-4-yl-thiazolidine-3-carboxylic acid benzyl ester] is 98.8%; for `O=C(Nc1ccccc1)c1cccc(NC(=O)[C@@H]2CSC(c3ccncc3)N2C(=O)OCc2ccccc2)c1` (stereo in doubt) [Compound 7112, 4-(3-Phenylcarbamoyl-phenylcarbamoyl)-2-pyridin-4-yl-thizolidine-3-carboxylic acid benzyl ester] it is 64.2%; for `O=C(NC1CC1)c1ccc(-c2csc(NC(=O)[C@@H]3CSC(c4ccnc(O)c4)N3C(=O)OCc3ccccc3)n2)cc1` (mixture of isomers) [Compound 7049, (R)-4-[4-(4-Cyclopropylcarbamoyl-phenyl)-thiazol-2-ylcarbamoyl]-2-(2-hydroxy-pyridin-4-yl)-thiazolidine-3-carboxylic acid benzyl ester] it is 98.8%.
For the compound `CC(C)(C)OC(=O)N1C[C@H](c2ccccc2)C[C@H]1C(=O)Nc1nc(-c2ccc(C(=O)NC3CC3)cc2)cs1` [Compound 7038, (2S,4S)-2-[4-(4-Cyclopropylcarbamoyl-phenyl)-thiazol-2-ylcarbamoyl]-4-phenyl-pyrrolidine-1-carboxylic acid tert-butyl ester], the inhibition at 5 µM turned out to be 48.4%.
Next, `O=C(NC1CC1)c1ccc(-c2csc(NC(=O)[C@@H]3CSC(C4CCOCC4)N3C(=O)C3CC3)n2)cc1` (some centres unmarked) [Compound 7085, 3-Cyclopropanecarbonyl-2-(tetrahydro-pyran-4-yl)-thiazolidine-4-carboxylic acid [4-(4-cyclopropylcarbamoyl-phenyl)-thiazol-2-yl]-amide]: 99.6%; `O=C(NC1CC1)c1ccc(-c2csc(NC(=O)[C@@H]3CSC(c4ccccn4)N3C(=O)OCc3ccccc3)n2)cc1` (stereo partly drawn) [Compound 7010, (R)-4-[4-(4-Cyclopropylcarbamoyl-phenyl)-thiazol-2-ylcarbamoyl]-2-pyridin-2-yl-thiazolidine-3-carboxylic acid benzyl ester]: 98.1%.
In the case of `COc1cccc(C2SC[C@@H](C(=O)Nc3nc(-c4ccc(C(=O)NC5CC5)cc4)cs3)N2C(=O)OCc2ccccc2)c1` (mixture of isomers) [Compound 7016, (R)-4-[4-(4-Cyclopropylcarbamoyl-phenyl)-thiazol-2-ylcarbamoyl]-2-(3-methoxy-phenyl)-thiazolidine-3-carboxylic acid benzyl ester], at 5 µM the inhibition was 98.5%.
The figure for `O=C(NC1CC1)c1ccc(-c2csc(NC(=O)[C@@H]3CSC(c4cc[n+]([O-])cc4)N3C(=O)OCc3ccccc3)n2)cc1` (stereo partly drawn) [Compound 7050, (R)-4-[4-(4-Cyclopropylcarbamoyl-phenyl)-thiazol-2-ylcarbamoyl]-2-(1-oxy-pyridin-4-yl)-thiazolidine-3-carboxylic acid benzyl ester] is 100%.
Compound `CC1SC[C@@H](C(=O)Nc2nc(-c3ccc(C(=O)NC4CC4)cc3)cs2)N1C(=O)OCc1ccccc1` (stereo partly drawn) [Compound 7024, (R)-4-[4-(4-Cyclopropylcarbamoyl-phenyl)-thiazol-2-ylcarbamoyl]-2-methyl-thiazolidine-3-carboxylic acid benzyl ester] registered an inhibition at 5 µM of 99.7%.
The figure for `NC(=O)c1ccc(NC(=O)[C@@H]2CSC(c3ccncc3)N2C(=O)OCc2ccccc2)cc1` (some centres unmarked) [Compound 7134, 4-(4-carbamoyl-phenylcarbamoyl)-2-pyridin-4-yl-thiazolidine-3-carboxylic acid benzyl ester] is 13.6%; for `N#Cc1cccc(C2OC[C@@H](C(=O)Nc3nc(-c4ccc(C(=O)NC5CC5)cc4)cs3)N2C(=O)OCc2ccccc2)c1` (stereo in doubt) [Compound 7081, 2-(3-Cyano-phenyl)-4-[4-(4-cyclopropylcarbamoyl-phenyl)-thiazol-2-ylcarbamoyl]-oxazolidine-3-carboxylic acid benzyl ester] it is 100%.
Next, `Cn1ccnc1C1SC[C@@H](C(=O)Nc2nc(-c3ccc(C(=O)NC4CC4)cc3)cs2)N1C(=O)OCc1ccccc1` (single isomer, unassigned) [Compound 7054, 4-[4-(4-Cyclopropylcarbamoyl-phenyl)-thiazol-2-ylcarbamoyl]-2-(1-methyl-1H-imidazol-2-yl)-thiazolidine-3-carboxylic acid benzyl ester]: 94.1%; `O=C(Nc1cccnc1)c1ccc(-c2csc(NC(=O)[C@@H]3COC4(CCOCC4)N3C(=O)OCc3ccccc3)n2)cc1` [Compound 7140, 3-{4-[4-(Pyridin-3-ylcarbamoyl)-phenyl]-thiazol-2-ylcarbamoyl}-1,8-dioxa-4-aza-spiro[4.5]decane-4-carboxylic acid benzyl ester]: 99.9%.
For `O=C(NC1CC1)c1ccc(-c2csc(NC(=O)[C@@H]3C[C@@H]4CCCC[C@@H]4N3C(=O)OCc3ccccc3)n2)cc1` [Compound 7043, (2S,3aS,7aS)-2-[4-(4-Cyclopropylcarbamoyl-phenyl)-thiazol-2-ylcarbamoyl]-octahydro-indole-1-carboxylic acid benzyl ester], the inhibition at 5 µM is 100%.
The figure for `O=C(NCCN1CCOCC1)c1ccc(-c2csc(NC(=O)[C@@H]3CSC4(CCOCC4)N3C(=O)OCc3ccccc3)n2)cc1` [Compound 7138, 3-{4-[4-(2-Morpholin-4-yl-ethylcarbamoyl)-phenyl]-thiazol-2-ylcarbamoyl}-8-oxa-1-thia-4-aza-spiro[4.5]decane-4-carboxylic acid benzyl ester] is 100%; for `O=C(NC1CC1)c1ccc(-c2csc(NC(=O)[C@@H]3CSC(c4cncs4)N3C(=O)OCc3ccccc3)n2)cc1` (mixture of isomers) [Compound 7015, (R)-4-[4-(4-Cyclopropylcarbamoyl-phenyl)-thiazol-2-ylcarbamoyl]-4,5-dihydro-[2,5′]bithiazolyl-3-carboxylic acid benzyl ester] it is 100%.
For the compound `O=C(NC1CC1)c1ccc(-c2csc(NC(=O)[C@@H]3CSC(C4CCOCC4)N3C(=O)OCc3ccccc3)n2)cc1` (mixture of isomers) [Compound 7025, (R)-4-[4-(4-Cyclopropylcarbamoyl-phenyl)-thiazol-2-ylcarbamoyl]-2-(tetrahydro-pyran-4-yl)-thiazolidine-3-carboxylic acid benzyl ester], the inhibition at 5 µM stood at 100%.
The figure for `CC(C)(C)OC(=O)N1C(C2CCOCC2)SC[C@H]1C(=O)Nc1nc(-c2ccc(C(=O)NC3CC3)cc2)cs1` (some centres unmarked) [Compound 7090, 4-[4-(4-Cyclopropylcarbamoyl-phenyl)-thiazol-2-ylcarbamoyl]-2-(tetrahydropyran-4-yl)-thiazolidine-3-carboxylic acid tert-butyl ester] is 99.7%; for `O=C(NC1CC1)c1ccc(-c2csc(NC(=O)C3Cc4ccccc4N3C(=O)OCc3ccccc3)n2)cc1` (centres unmarked) [Compound 7019, 2-[4-(4-Cyclopropylcarbamoyl-phenyl)-thiazol-2-ylcarbamoyl]-2,3-dihydro-indole-1-carboxylic acid benzyl ester] it is 98.3%; for `Cc1ccc2[nH]c(Cc3ccc(NC(=O)[C@@H]4CSC(c5ccncc5)N4C(=O)OCc4ccccc4)cc3)nc2c1` (some centres unmarked) [Compound 7117, 4-[4-(5-Methyl-1H-benzoimidazol-2-ylmethyl)-phenylcarbamoyl]-2-pyridin-4-yl-thiazolidine-3-carboxylic acid benzyl ester] it is 42.4%.
`O=C(NC1CC1)c1ccc(-c2csc(NC(=O)[C@@H]3COC(CC4CCOCC4)N3C(=O)OCc3ccccc3)n2)cc1` (stereo in doubt) [Compound 7095, 4-[4-(4-Cyclopropylcarbamoyl-phenyl)-thiazol-2-ylcarbamoyl]-2-(tetrahydropyran-4-ylmethyl)-oxazolidine-3-carboxylic acid benzyl ester] registered an inhibition at 5 µM of 99.9%.
The figure for `O=C(NC1CC1)c1ccc(-c2csc(NC(=O)[C@@H]3CS[C@@H](c4cccnc4)N3C(=O)OCc3ccccc3)n2)cc1` [Compound 7009, (2S,4R)-4-[4-(4-Cyclopropylcarbamoyl-phenyl)-thiazol-2-ylcarbamoyl]-2-pyridin-3-yl-thiazolidine-3-carboxylic acid benzyl ester] is 99.9%.

These data come from patent US20080181866A1, “Amido Anti-viral Compounds” (Genelabs Technologies, Inc., priority 2006, published 2008).
